Consider 92 compounds from ChEMBL document CHEMBL1140205, “Discovery and development of fatty acid amide hydrolase (FAAH) inhibitors” (J Med Chem, 2008).

One experiment addresses T1, Fatty-acid amide hydrolase 1 (Homo sapiens, UniProt O00519).
T1 sequence (O00519 whole entry): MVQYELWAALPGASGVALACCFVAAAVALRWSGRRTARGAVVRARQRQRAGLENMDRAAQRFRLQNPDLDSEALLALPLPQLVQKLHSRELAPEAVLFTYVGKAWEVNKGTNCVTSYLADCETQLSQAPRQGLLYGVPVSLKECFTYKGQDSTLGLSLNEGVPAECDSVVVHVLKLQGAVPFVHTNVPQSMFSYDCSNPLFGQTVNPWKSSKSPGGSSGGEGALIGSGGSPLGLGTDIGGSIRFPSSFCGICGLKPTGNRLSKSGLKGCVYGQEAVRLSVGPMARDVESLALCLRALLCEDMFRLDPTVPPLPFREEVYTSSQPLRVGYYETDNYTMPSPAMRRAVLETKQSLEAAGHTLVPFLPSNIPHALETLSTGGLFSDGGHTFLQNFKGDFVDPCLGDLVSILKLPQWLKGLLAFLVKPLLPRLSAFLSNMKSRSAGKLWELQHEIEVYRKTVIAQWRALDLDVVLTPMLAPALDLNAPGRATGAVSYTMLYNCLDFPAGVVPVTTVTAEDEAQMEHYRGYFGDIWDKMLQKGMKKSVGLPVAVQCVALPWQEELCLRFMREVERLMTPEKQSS
Nature of the experiment: Inhibition of human FAAH.
Details: not given
Take `O=C(NCC1CCCCC1)Oc1ccc(C(=O)O)cc1`: the IC50 is less than 100 nM. For `NC(=O)c1cccc(-c2cccc(OC(=O)NCCCCCCc3ccccc3)c2)c1`, the IC50 is 14 nM.

With `CCCCCCCC/C=C\CCCCCCCNC(=O)Oc1cccc(-c2cccc(C(N)=O)c2)c1`, the IC50 came to 58 nM. Same read-out and setting: then `O=C(NC1CCCCC1)Oc1cccc(-c2ccccc2)c1`, with 63 nM; and `O=C(NC1CCCCC1)Oc1ccc2ccccc2c1`, with 324 nM. Compound `CNC(=O)Oc1cccc2ccccc12` [CARBARIL] had an IC50 of more than 30000 nM.

A further experiment addresses T1, Fatty-acid amide hydrolase 1. As to the kind of experiment: Inhibition of FAAH.
Details: not given
`O=C(CCCCCc1ccccc1)c1nc2ncccc2o1`: the Ki amounted to 0.2 nM.

`CCCCCCCC/C=C\CCCCCCCC(=O)C(F)(F)F` displayed an inhibition constant Ki of 12 nM.

In turn, `O=C(CCCCSCc1ccccc1)c1ncc(-c2ccccn2)o1` registered a Ki of 25 nM. In the case of `CCCCCCCC/C=C\CCCCCCC(=O)c1nccn1C`, the Ki is more than 100000 nM. Compound `CCCCCCCC/C=C\CCCCCCC(=O)c1ccncn1` showed an inhibition constant Ki of 110 nM. Still for that read-out and setting: the figure for `CCCCCCCC/C=C\CCCCCCC(=O)c1cccnn1` is 130 nM; for `CCCCCCCC/C=C\CCCCCCC(=O)c1nc2cccc(C)c2o1` it is 13000 nM. `O=C(CCCCOCc1ccccc1)c1ncc(-c2ccccn2)o1`: the Ki was determined as 55 nM. The compound `CCCCCCCC/C=C\CCCCCCCC(OC)OC` had an inhibitory constant (Ki) of more than 300000 nM.

Consider `CCCCCCCC/C=C\CCCCCCCC(=O)O` [OLEIC ACID], for which the inhibition constant Ki was 6000 nM. In turn, `CCCCCCCC/C=C\CCCCCCC(=O)c1ncc(-c2ccoc2)o1` returned a Ki of 610 nM. The same measure, in the same setting: then `O=C(CCCCCCc1ccccc1)c1nnn(-c2ccccn2)n1`, with 1.1 nM; and `CCCCCCCC/C=C\CCCCCCC(=O)c1nc2ccc(C)cc2o1`, with more than 100000 nM; and `CCCCCCCCCCCCCC(=O)C(F)(F)F`, with 490 nM. `CCCCCCCC/C=C\CCCCCCC(=O)c1ncc(-c2ccccc2)o1` showed an inhibition constant Ki of 320 nM. Same read-out and setting: the figure for `CCCCCCCC/C=C\CCCCCCC(=O)c1nnn(C)n1` is 65 nM. On the same count and under the same terms, the figure for `CCCCCCCC/C=C\CCCCCCC(=O)c1nc2ccccc2o1` is 370 nM. On the same count and under the same terms, then `O=C(CCCCCCc1cccc(Cl)c1)c1ncc(-c2ccccn2)o1`, with 0.9 nM; and `CCCCCCCC/C=C\CCCCCCCC(=O)C(N)=O`, with 17 nM. On to `CCCCCCCC/C=C\CCCCCCCC(=O)CCl`, for which the inhibition constant Ki turned out to be 700 nM. Compound `O=C(CCc1ccc(COc2ccccc2)cc1)c1ncc(-c2ccccn2)o1` showed an inhibition constant Ki of 1 nM.

`CCCCCCCC/C=C\CCCCCCC(=O)c1nc2cnccc2o1` returned an inhibitory constant (Ki) of 7.2 nM. The compound `CCCCCCCC/C=C\CCCCCCC(=O)c1nc(-c2ccccn2)co1` had a Ki of 31 nM. Compound `CCCCCCCC/C=C\CCCCCCC(=O)c1nnc(-c2ccccn2)o1` yielded a Ki of 3000 nM. With `O=C(CCCCCCCCc1ccccc1)c1nc2ncccc2o1`, the affinity, expressed as Ki, was 0.52 nM. Consider `O=C(CCCCCCc1ccccc1)c1nnc(-c2ccccn2)[nH]1`, for which the Ki was more than 10000 nM.

`CCCCCCCC/C=C\CCCCCCC(=O)c1nc2cc(C)ccc2o1` registered an inhibitory constant (Ki) of more than 100000 nM.

For the compound `CCCCCCCCCCCC(=O)C(F)(F)F`, the affinity, expressed as Ki, was 140 nM.

For `N#Cc1cnc(C(=O)CCc2ccc(-c3ccccc3)cc2)o1`, the affinity, expressed as Ki, was 0.2 nM.

`CCCCCCCC/C=C\CCCCCCC(=O)c1nc2ncccc2o1`: affinity was put at a Ki of 2.3 nM.

For the compound `CCCCCC(=O)C(F)(F)F`, the inhibition constant Ki was found to be 28900 nM.

`CCCCCCCC/C=C\CCCCCCC(=O)c1nc2ccncc2o1` displayed an inhibitory constant (Ki) of 3.7 nM.

`CCCCCCCC/C=C\CCCCCCC(=O)c1ncc(-c2ccncc2)o1` came in with an inhibitory constant (Ki) of 56 nM.

The compound `O=C(CCCC[S+]([O-])Cc1ccccc1)c1ncc(-c2ccccn2)o1` (configuration not stated) returned an inhibition constant Ki of 2500 nM.

On to `CCCCCCCC/C=C\CCCCCCC(=O)c1ncc(-c2ccsc2)o1`, for which affinity was put at a Ki of 13200 nM. Consider `CCCCCCCC/C=C\CCCCCCC(=O)c1ccccn1`, for which the inhibition constant (Ki) was more than 100000 nM. Still for that read-out and setting: then `CCCCCCCC/C=C\CCCCCCCC(C)=O`, with more than 100000 nM; and `O=C(CCCc1ccccc1)c1nc2ncccc2o1`, with 6.9 nM. Still for that read-out and setting: then `CCCCCCCC/C=C\CCCCCCCC(=O)C(=O)OCC`, with 9 nM; and `O=C(CCCCCCc1ccccc1)C(F)(F)F`, with 100 nM; and `CCCCCCCC/C=C\CCCCCCC(=O)c1ncc(-c2ccco2)o1`, with 54 nM.

In the case of `O=C(CCCCCCc1ccccc1)c1nnn[nH]1`, the Ki is more than 1000 nM. Consider `CCCCCCCCCCCCCCCCCC(=O)C(F)(F)F`, for which the affinity corresponds to a Ki of 240 nM. Still for that read-out and setting: the figure for `CCCCCCCC/C=C\CCCCCCC(=O)c1nccs1` is more than 100000 nM; for `CCCCCCC(=O)C(F)(F)F` it is 10700 nM.

Compound `O=C(CCCCCCc1ccccc1)c1nc2ncccc2o1` gave an inhibition constant (Ki) of 0.28 nM. Same read-out and setting: the figure for `CCCCCCCC/C=C\CCCCCCC(=O)c1ncc(-c2cccnc2)o1` is 61 nM; for `CCCCCCCCCC(=O)C(F)(F)F` it is 130 nM; for `CCCCCCCC/C=C\CCCCCCCC(O)C(N)=O` (configuration not stated) it is more than 100000 nM. Still for that read-out and setting: then `O=C(O)c1cccc(CCCCCCC(=O)c2ncc(-c3ccccn3)o2)c1`, with more than 600 nM; and `CCCCCCCC/C=C\CCCCCCC(=O)c1nc2c(C)cccc2o1`, with more than 100000 nM; and `O=C(CCCCc1ccccc1)c1nc2ncccc2o1`, with 0.3 nM.

With `CCCCCCCC/C=C\CCCCCCCC=O` [OLEALDEHYDE], the inhibition constant (Ki) worked out at 190 nM. Compound `CCCCCCCC/C=C\CCCCCCC(=O)c1ncco1` returned an inhibition constant (Ki) of 17 nM. On the same count and under the same terms, then `CCCCCCCC/C=C\CCCCCCC(=O)c1nc2cccnc2o1`, with 11 nM; and `CCCCCCCC/C=C\CCCCCCC(=O)c1ncc(-c2ccccn2)o1`, with 18 nM. `CCCCCCCC(=O)C(F)(F)F` returned an inhibitory constant (Ki) of 1200 nM. The same measure, in the same setting: the figure for `CCCCCCCC/C=C\CCCCCCC(=O)c1ccccc1` is more than 100000 nM; for `O=C(CCCCCCCc1ccccc1)c1nc2ncccc2o1` it is 0.39 nM; for `CCCCCCCC/C=C\CCCCCCC(=O)c1nc(-c2ccccc2)c(-c2ccccc2)o1` it is more than 100000 nM. In the case of `CN(CCCCC(=O)c1ncc(-c2ccccn2)o1)Cc1ccccc1`, the affinity, expressed as Ki, was 200 nM. Compound `CCCCCCC(C)OC(=O)CC(=O)CBr` (configuration not stated) had a Ki of 820 nM. Take `O=C(CCCCS(=O)(=O)Cc1ccccc1)c1ncc(-c2ccccn2)o1`: the inhibitory constant (Ki) is more than 10000 nM. Same read-out and setting: then `O=C(CCCCCCc1ccccc1)c1nnc[nH]1`, with more than 1000 nM.

Staying with this experiment, now noted: read-out: IC50.
Consider `CCCCC/C=C\C/C=C\C/C=C\C/C=C\CCCC(=O)NC12CC3CC(CC(C3)C1)C2`, for which the IC50 was 37400 nM. In the case of `O=C(Nc1cccc(C(=O)c2nc3ccccc3o2)c1)NC1CCCC1`, the IC50 is more than 300000 nM. The same measure, in the same setting: the figure for `CCOC(=O)CCCc1ccc(-n2c(CC)nc(-c3ccccc3)c2-c2ccccc2)cc1` is 64 nM; for `OB(O)c1ccc(Oc2ccccc2)cc1` it is less than 10 nM. For `CCCCC/C=C\C/C=C\C/C=C\C/C=C\CCCC(=O)O` [ARACHIDONIC ACID], the IC50 was more than 100000 nM. On to `O=C(NC1CCCC1)Oc1cccc(C(=O)c2nc3ccccc3o2)c1`, for which the IC50 stood at 28000 nM. With `CNC(=O)COC(=O)N1CCC(CCc2ccc(Cl)cc2)CC1`, the IC50 was determined as 13 nM. Still for that read-out and setting: then `O=C(NC1CCCC1)Oc1cccc(C(=O)c2nc3ccccc3s2)c1`, with 47000 nM; and `CCCCC/C=C\C/C=C\C/C=C\C/C=C\CCCC(=O)NCC1CC1`, with 1400 nM; and `CCCCC/C=C\C/C=C\C/C=C\C/C=C\CCCNC(=O)NCc1ccc(OC)c(O)c1`, with 2000 nM. Still for that read-out and setting: the figure for `NC(=O)c1cccc(-c2cccc(OC(=O)NCc3ccc4ccccc4c3)c2)c1` is 0.63 nM; for `CC(C)c1cccc(CN2CCC(CCCC(=O)c3ncco3)CC2)c1` it is 3.6 nM. `CCCCC/C=C\C/C=C\C/C=C\C/C=C\CCCC(=O)NCCCl`: the IC50 stood at 900 nM. `CCCCC/C=C\C/C=C\C/C=C\C/C=C\CCCC(=O)Nc1cccnc1`: the IC50 was 1200 nM. The same measure, in the same setting: the figure for `CCCCC/C=C\C/C=C\C/C=C\C/C=C\CCCC(=O)NCCO` [ANANDAMIDE] is 3400 nM.

Staying with this experiment, now noted: read-out: pIC50 (converted).
`CCCCCCCCCCCCCCN1C(=O)C(c2ccccc2)(c2ccccc2)NC1=S`: the IC50 was 1150 nM.

Consider `CCCCCCCCCCCCCCCC(=O)NCCCCl`, for which the IC50 was 2510 nM. As to `CCCCCCCCCCCCCCCC(=O)NCC`, the IC50 was 3550 nM. Regarding `C=CCNC(=O)CCCCCCCCCCCCCCC` [HEXADECANOIC ACID ALLYLAMIDE], the IC50 is 3390 nM. Same read-out and setting: the figure for `CCCCCCCCCCCCCCCC(=O)NCCCl` is 2630 nM.

With `CCCCCCCCCCCCCCCC(=O)NCCCO` [N-(3-HYDROXYPROPYL)PALMITAMIDE], the IC50 is 3800 nM.

In the case of `CCCCCCCCCCCCCCCC(=O)NCCBr`, the IC50 is 3550 nM.

One may read the Ki as a dissociation constant, usually derived from enzyme kinetics or from competition with a known ligand. A higher Ki goes with a looser hold on the target.
